Numbers after ± are expanded uncertainties.
Conditions: Crystal; visual observation

Normal melting temperature: 284.6 ± 1.4 °C
Compound: F[P-](F)(F)(F)(F)F.F[P-](F)(F)(F)(F)F.c1cc[n+](CCC[n+]2ccccc2)cc1 [1,1'-(1,3-propanediyl)bis-pyridinium hexafluorophosphate]
